According to ChEMBL document CHEMBL5500356, “Design, synthesis, and biological evaluation of novel benzimidazole derivatives as anti-cervical cancer agents through PI3K/Akt/mTOR pathway and tubulin inhibition” (Eur J Med Chem, 2024):

What was measured:
[1] = Cytotoxicity against human L02 cells assessed as cell viability incubated for 48 hrs by MTT assay; format: toxicity, cell-based
Ca-Ski = test: Antiproliferative activity against human Ca-Ski cells assessed as cell viability incubated for 48 hrs by MTT assay; format: functional, cell-based
HeLa = test: Antiproliferative activity against human HeLa cells assessed as cell viability incubated for 48 hrs by MTT assay; format: functional, cell-based
[2] = Cytotoxicity against human HEK293T cells assessed as cell viability incubated for 48 hrs by MTT assay; format: toxicity, cell-based, HEK-293T
SiHa = test: Antiproliferative activity against human SiHa cells assessed as cell viability incubated for 48 hrs by MTT assay; format: functional, cell-based

Structure (SMILES) | IC50 (HeLa) [µM] | IC50 at 48 h [1] [µM] | IC50 (Ca-Ski) [µM] | IC50 at 48 h [2] [µM] | IC50 (SiHa) [µM]
COc1cc(-c2nc3cc(N4CCOCC4)c(/C=C/C(=O)N(C)C)cc3[nH]2)cc(OC)c1OC | 14.5 | > 100 | 48.5 | 2.53 | > 100
COc1cc(OC)c(-c2nc3cc(N4CCOCC4)c(C#Cc4ccccc4)cc3[nH]2)cc1OC | 19.3 | 34.1 | 19.5 | 13.2 | 25.1
COc1cc(-c2nc3cc(N4CCOCC4)c(C#Cc4ccccc4F)cc3[nH]2)cc(OC)c1OC | 8.6 | 6.98 | 10.7 | 38.6 | > 100
COc1cc(OC)c(-c2nc3cc(N4CCOCC4)c(C#Cc4ccc(Cl)cc4)cc3[nH]2)cc1OC | 16.7 | > 100 | > 100 | 36.1 | > 100
COc1cc(-c2nc3cc(N4CCOCC4)c(C#Cc4ccccc4Cl)cc3[nH]2)cc(OC)c1OC | 10.4 | > 100 | 13.5 | 5.37 | 7.81

The next compounds have a lower IC50 (HeLa) than those just listed; values first:

IC50 (HeLa) [µM] | Structure (SMILES) | IC50 at 48 h [1] [µM] | IC50 (Ca-Ski) [µM] | IC50 at 48 h [2] [µM] | IC50 (SiHa) [µM]
1.61 | COc1cc(OC)c(-c2nc3cc(N4CCN(C)CC4)c(C#Cc4ccc(Cl)cc4)cc3[nH]2)cc1OC | 1.38 | > 100 | 1.64 | 3.03
8.07 | COc1cc(-c2nc3cc(N4CCOCC4)c(C#Cc4ccccc4)cc3[nH]2)cc(OC)c1OC | 9.09 | 6.45 | 3.73 | 7.07
1.73 | COc1cc(-c2nc3cc(N4CCN(C)CC4)c(C#Cc4ccccc4Cl)cc3[nH]2)cc(OC)c1OC | 1.29 | 3.15 | 0.8 | 1.4
3.67 | COc1ccc(C#Cc2cc3[nH]c(-c4cc(OC)c(OC)c(OC)c4)nc3cc2N2CCOCC2)cc1 | 8.82 | 9.11 | 2.18 | 26.8
3.23 | COc1cc(-c2nc3cc(N4CCOCC4)c(C#Cc4ccc(Cl)cc4)cc3[nH]2)cc(OC)c1OC | 12.8 | 14.4 | 15.9 | 20.9
4.21 | COc1cc(-c2nc3cc(N4CCOCC4)c(/C=C/C(=O)NC(C)(C)C)cc3[nH]2)cc(OC)c1OC | 9.92 | 16 | 11.7 | 17
